Assay results published in BigSolDB 2.1.

CC(C)[C@H](N)C(=O)O
Conditions | solubility (mole fraction)
in DMF, 293.15 K | 1.25e-06
in DMF, 303.25 K | 2.49e-06
in DMF, 313.25 K | 4.36e-06
in DMF, 323.15 K | 7.48e-06
in DMF, 333.25 K | 1.06e-05
in DMF, 343.25 K | 1.49e-05
in acetone, 293.15 K | 4.96e-07
in acetone, 302.95 K | 9.91e-07
in acetone, 313.35 K | 1.98e-06
in acetone, 323.35 K | 2.97e-06
in acetone, 328.15 K | 3.97e-06
in ethanol, 293.15 K | 1.18e-05
in ethanol, 303.75 K | 2.36e-05
in ethanol, 313.15 K | 3.69e-05
in ethanol, 323.15 K | 5.34e-05
in ethanol, 333.25 K | 7.62e-05
in ethanol, 343.25 K | 0.000109
in isopropanol, 293.45 K | 2.56e-06
in isopropanol, 303.05 K | 4.61e-06
in isopropanol, 313.35 K | 7.17e-06
in isopropanol, 323.25 K | 1.08e-05
in isopropanol, 333.05 K | 1.54e-05
in isopropanol, 343.35 K | 2.1e-05
in water, 293.55 K | 0.00884
in water, 303.05 K | 0.00938
in water, 313.15 K | 0.0101
in water, 323.05 K | 0.0109
in water, 333.25 K | 0.0117
in water, 343.15 K | 0.0129
